# Results: patent US20230373972A1, “PIPERAZINE DERIVATIVE, PREPARATION METHOD THEREFOR AND USE THEREOF” (Zhejiang Hisun Pharmaceutical Co., Ltd., priority 2020, published 2023)
# Key:
# [1] = target: T1, Native human Factor XIa protease (Homo sapiens, UniProt P03951); assay: Inhibition of activity of Factor XIa protease (chromogenic substrate S-2366); format: biochemical; conditions: S-2366 1 mM, 37° C. 10 minutes, absorption at 405 nm
# T1 construct: The Native human Factor XIa protease was purchased from Abcam; purchased Abcam ab62411
# Method in brief: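 Native human Factor XIa (final […]) in 100 mM Tris-HCl, 200 mM NaCl, 0.02% Tween 20, pH 7.4, preincubated with compound 5 min on ice; 1 mM S-2366 added, 10 min at 37° C. Absorbance at 405 nm versus 0.1% DMSO control; IC50 by nonlinear regression, compound 10,000 nM to […] final.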
# [2] = Pharmacokinetics in SD rat; format: in vivo; conditions: male, plasma; for AUC(0-t): read-out: Curve area AUC0-t; for half-life: read-out: Half-life period T1/2(h) (converted)
# Method: Taking a SD rat as a test animal, the SD rat was administrated with the compound of the present invention by intravenous injection and/or intragastric administration, and drug concentrations in plasma at different times were determined by a IC/MS/MS method to study pharmacokinetic characteristics of the compound of the present invention in the SD rat.
# SD rats, male, 195 g to 235 g, 6 weeks old to 8 weeks old, purchased from Shanghai JieSiJie Laboratory Animal Co., Ltd.
# Preparation of drug administrated by intravenous injection: a proper amount of compound to be tested was added to a proper amount of DMAC; (30% Soltol HS 15): Saline=10%: 10%: 80% (v/v/v), and shaken in a vortex manner, so as to prepare a final solution with a concentration of 0.5 mg/mL.
# Preparation of drug administrated by intragastric administration: a proper amount of compound to be tested was added to a proper amount of DMAC: (30% Soltol HS 15): Saline=10%: 10%: 80% (v/v/v), and shaken in a vortex manner, so as to prepare a final solution with a concentration of 1 mg/mL.
# SD rats were divided into an intravenous injection group of the compound to be tested (3 rats/group) and an intragastric administration group (3 rats/group) of the compound to be tested.
# Intravenous injection group: the drug was administrated by dorsalis pedis vein injection (according to a dosage of 1 mg/kg and a volume of 2 mL/kg) without fasting.
# Intragastric administration group: the drug was administrated by intragastric administration (according to a dosage of 10 mg/kg and a volume of 10 mL/kg) after fasting overnight, and food was taken 4 hours after administration.
# Intravenous injection group: about 150 μL of blood was collected into an EDTA-K2 anticoagulant tube through a jugular vein 0.083 hour, 0.25 hour, 0.5 hour, 1 hour, 2 hours, 4 hours, 8 hours and 24 hours after administration.
# Intragastric administration group; about 150 μL of blood was collected into an EDTA-K2 anticoagulant tube through a jugular vein 0.25 how, 0.5 hour, 1 hour, 2 hours, 4 hours, 8 hours and 24 hours after administration.
# The blood sample was stored in wet ice first, and plasma was centrifugally separated within 15 minutes after sampling (centrifugation conditions: 2,000 g, 4° C., 5 minutes). The collected upper plasma was stored at −70° C. before analysis.
# Contents of the compound to be tested in rat plasma after intravenous injection and intragastric administration were determined by LC-MS/MS.
# [3] = Pharmacokinetics in cynomolgus macaque; format: in vivo; conditions: male, cynomolgus monkey, plasma, po, intragastric administration 15 mg/kg
# Method: Taking a cynomolgus macaque as a tested animal, the cynomolgus macaque was administrated with the compound in Example 96 of the present invention by intragastric administration, and drug concentrations in plasma at different times were determined by a LC/MS/MS method to study pharmacokinetic characteristics of the compound of the present invention in the cynomolgus macaque.
# Cynomolgus macaque, male, 4.6 kg to 5.7 kg, adult, purchased from Guangxi Fangcheng Gang Spring Biological Technology Development Corporation Ltd.
# Preparation of drug administrated by intragastric administration: a proper amount of compound to be tested was added to a proper amount of DMAC: (30% Kolliphor HS 15): Saline=5%: 10%; 85% (v/v/v), and shaken in a vortex manner, so as to prepare a final solution with a concentration of 3 mg/mL.
# Cynomolgus macaques were organized into one group, which was an intragastric administration group (3 cynomolgus macaques in single group).
# Intragastric administration group: the drug was administrated by intragastric administration (according to a dosage of 15 mg/kg and a volume of 5 ml/kg) after fasting overnight, and food was taken 4 hours after administration.
# Intragastric administration group: about 500 μL of blood was collected into an EDTA-K2 anticoagulant tube through a cephalic vein and a saphenous vein 0.25 hour, 0.5 hour, 1 hour, 2 hours, 4 hours, 8 hours and 24 hours after administration.
# The blood sample was placed on wet ice first, and plasma was centrifugally separated within 15 minutes after sampling (centrifugation conditions: 2,000 g, 4° C., 5 minutes). The collected upper plasma was stored at −70° C. before analysis.
# Contents of the compound to be tested in cynomolgus macaque plasma after intragastric administration were determined by LC-MS/MS.
# [4] = iv, injection administration 1 mg/kg
# [5] = po, intragastric administration 10 mg/kg
# T1 sequence (P03951 388-625 limits assumed): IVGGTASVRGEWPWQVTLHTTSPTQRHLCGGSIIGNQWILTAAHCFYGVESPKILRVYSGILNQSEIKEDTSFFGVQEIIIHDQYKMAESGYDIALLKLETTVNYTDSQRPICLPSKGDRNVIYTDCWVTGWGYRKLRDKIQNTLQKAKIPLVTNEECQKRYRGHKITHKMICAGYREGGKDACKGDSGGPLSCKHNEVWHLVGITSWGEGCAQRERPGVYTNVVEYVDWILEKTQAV
# T1 sequence (P03951 19-387 partner limits assumed): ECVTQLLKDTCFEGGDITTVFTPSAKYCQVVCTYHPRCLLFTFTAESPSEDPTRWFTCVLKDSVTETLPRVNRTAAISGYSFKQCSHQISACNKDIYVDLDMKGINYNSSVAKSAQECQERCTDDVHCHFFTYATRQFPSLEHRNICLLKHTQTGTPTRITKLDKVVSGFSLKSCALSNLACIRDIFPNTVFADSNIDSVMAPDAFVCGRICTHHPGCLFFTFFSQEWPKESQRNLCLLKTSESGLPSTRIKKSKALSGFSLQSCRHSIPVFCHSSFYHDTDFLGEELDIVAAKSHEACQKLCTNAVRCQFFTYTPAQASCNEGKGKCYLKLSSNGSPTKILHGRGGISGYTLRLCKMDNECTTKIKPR
smiles,measurement,setting,value
"COCC[C@@H](C(=O)Nc1ccc2nn(C)cc2c1)N1CC(=O)N(c2cc(Cl)ccc2-n2cc(Cl)nn2)CC1=O [Example 96, (S)-2-(4-(5-chloro-2-(4-chloro-1H-1,2,3-triazol-1-yl)phenyl)-2,5-dioxopiperazin-1-yl)-4-methoxy-N-(2-methyl-2H-indazol-5-yl)butanamide]",IC50,[1],42.8 nM
same,AUC(0-t),[2]; [4],532 ± 87.8 ng·h/mL
same,half-life,[2]; [4],0.942 ± 0.078 h
same,bioavailability,"[2]; po, intragastric 10 mg/kg vs injection 1 mg/kg, read-out: Bioavailability F(%)",72.5 ± 13.7%
same,Cmax,"[2]; po, intragastric administration 10 mg/kg, read-out: Blood concentration Cmax",1790 ± 510 ng/mL
same,AUC(0-t),[2]; [5],3860 ± 728 ng·h/mL
same,half-life,[2]; [5],1.54 ± 0.784 h
same,Cmax,[3]; read-out: Blood concentration Cmax,834 ± 482 ng/mL
same,AUC(0-t),[3]; read-out: Curve area AUC0-t,4210 ± 1240 ng·h/mL
same,half-life,[3]; read-out: Half-life period T1/2(h) (converted),3.71 ± 0.42 h
